Consider one molecule from patent US20180290977A1, “KDM4 INHIBITORS” (Albert-Ludwigs-University Freiburg, priority 2017, published 2018).

Holding throughout (assay type): cell-based, human
Assay [1] deals with BCSC1 cells. Briefly: BCSC cell proliferation / dose-response assay. Particulars: erlotinib, 10 μM (FIG. 7B).
Procedure: (§1) For dose-response assays, cells were detached by ACCUTASE solution dissociation and counted. […] After incubation at 37° C. for 30 min to solidify the [sequence], 1×10^3 single cells were seeded per 384-well in 40 μL medium. […] Following 96 hr of incubation under normal culture conditions, the cells were washed once with PBS and fixed with ice-cold methanol for at least 15 min at −20° C. After another washing step with PBS, cells were stained with DAPI (Sigma-Aldrich) and read-out with the ScanR microscope-based imaging platform (Olympus Deutschland GmbH, Hamburg, Del.). Total DAPI cell nuclear counts per well were determined.
(§2) For the cell proliferation assays, BCSCs tagged with a stable NLS-mCherry fluorescent signal (nuclear localization peptide) were used for this assay. Cells were detached by ACCUTASE dissociation and counted. Each well of a black 384-well plate (Greiner) was coated with 10 μL of MSC medium containing 2% [sequence]. After incubation at 37° C. for 30 min to solidify the [sequence], 1×10^3 single cells/well were seeded in 40 μL medium. […] Afterwards, the first readout with the ScanR microscope-based imaging platform (Olympus) was started, assessing mCherry-fluorescent cell nuclei in nine sectors of each well under 60% humidity and 5% CO2. This readout was repeated every 24 hr for 7 days. […]
Assay [2] has as its system BCSC2 cells. Briefly: BCSC cell proliferation / dose-response assay. The following applies: erlotinib, 10 μM (FIG. 7C).
Procedure: as §1, §2
The test system of assay [3] is BCSC1 cells. Briefly: Anchorage-independent sphere formation assay (methylcellulose). Particulars: erlotinib 1 μM or 10 μM (FIG. 7F).
Procedure: (§3) For the cancer stem-cell spheroid assay in methylcellulose, cells were detached by ACCUTASE solution and counted. 3×10^3 single BCSC1 and 1×10^3 single BCSC2 cells were seeded into individual wells of 96-well ultra-low attachment plates (CORNING, #3474) in serum-free MSC medium containing 1% methylcellulose (Sigma-Aldrich, #M0512).
In assay [4] the test system is BCSC2 cells. The description is as above. Particulars: erlotinib 1 μM or 10 μM (FIG. 7G).
Procedure: as §3

Molecules are shown by their SMILES.

As to `C#Cc1cccc(Nc2ncnc3cc(OCCOC)c(OCCOC)cc23)c1` [erlotinib], in assay [1], the “proliferation of BCSC1 cells” value is listed as “blocked”. In assay [2], the “proliferation of BCSC2 cells” value is “blocked”. For the same molecule, the 3D-colony forming capacity entry in assay [3] and in assay [4] was “dramatically reduced” in each case.
